Numbers after ± are expanded uncertainties.
Test: xn = mol fraction of the nth substance listed
Settings: 100 kPa, Liquid; for viscosity: Falling or rolling sphere viscometry; for mass density: Vibrating tube method

## NC1CCCCC1 [cyclohexylamine] + CC(C)CO
293.15 K, x2 = 0
  viscosity: 2.134 ± 0.063 mPa·s
  mass density: 866.85 ± 2 kg/m3
293.15 K, x2 = 0.06096
  viscosity: 2.408 ± 0.064 mPa·s
  mass density: 865.7 ± 2 kg/m3
293.15 K, x2 = 0.1205
  viscosity: 2.575 ± 0.064 mPa·s
  mass density: 865.02 ± 2 kg/m3
293.15 K, x2 = 0.2357
  viscosity: 2.838 ± 0.065 mPa·s
  mass density: 861.79 ± 2 kg/m3
293.15 K, x2 = 0.3458
  viscosity: 3.048 ± 0.066 mPa·s
  mass density: 856.98 ± 2 kg/m3
293.15 K, x2 = 0.4513
  viscosity: 3.246 ± 0.066 mPa·s
  mass density: 850.89 ± 2 kg/m3
293.15 K, x2 = 0.5523
  viscosity: 3.403 ± 0.067 mPa·s
  mass density: 847.01 ± 2 kg/m3
293.15 K, x2 = 0.6492
  viscosity: 3.522 ± 0.067 mPa·s
  mass density: 839.36 ± 2 kg/m3
293.15 K, x2 = 0.7421
  viscosity: 3.534 ± 0.067 mPa·s
  mass density: 830.79 ± 2 kg/m3
293.15 K, x2 = 0.8315
  viscosity: 3.606 ± 0.068 mPa·s
  mass density: 820.81 ± 2 kg/m3
293.15 K, x2 = 0.9174
  viscosity: 3.668 ± 0.068 mPa·s
  mass density: 814.12 ± 2 kg/m3
298.15 K, x2 = 0
  viscosity: 1.944 ± 0.062 mPa·s
  mass density: 862.31 ± 2 kg/m3
298.15 K, x2 = 0.06096
  viscosity: 2.146 ± 0.063 mPa·s
  mass density: 861.18 ± 2 kg/m3
298.15 K, x2 = 0.1205
  viscosity: 2.279 ± 0.063 mPa·s
  mass density: 860.59 ± 2 kg/m3
298.15 K, x2 = 0.2357
  viscosity: 2.474 ± 0.064 mPa·s
  mass density: 857.37 ± 2 kg/m3
298.15 K, x2 = 0.3458
  viscosity: 2.644 ± 0.064 mPa·s
  mass density: 852.62 ± 2 kg/m3
298.15 K, x2 = 0.4513
  viscosity: 2.805 ± 0.065 mPa·s
  mass density: 846.55 ± 2 kg/m3
298.15 K, x2 = 0.5523
  viscosity: 2.937 ± 0.065 mPa·s
  mass density: 842.76 ± 2 kg/m3
298.15 K, x2 = 0.6492
  viscosity: 3.037 ± 0.066 mPa·s
  mass density: 835.13 ± 2 kg/m3
298.15 K, x2 = 0.7421
  viscosity: 3.046 ± 0.066 mPa·s
  mass density: 826.7 ± 2 kg/m3
298.15 K, x2 = 0.8315
  viscosity: 3.088 ± 0.066 mPa·s
  mass density: 816.78 ± 2 kg/m3
298.15 K, x2 = 0.9174
  viscosity: 3.13 ± 0.066 mPa·s
  mass density: 810.19 ± 2 kg/m3
303.15 K, x2 = 0
  viscosity: 1.786 ± 0.062 mPa·s
  mass density: 857.79 ± 2 kg/m3
303.15 K, x2 = 0.06096
  viscosity: 1.948 ± 0.062 mPa·s
  mass density: 856.68 ± 2 kg/m3
303.15 K, x2 = 0.1205
  viscosity: 2.055 ± 0.063 mPa·s
  mass density: 856.11 ± 2 kg/m3
303.15 K, x2 = 0.2357
  viscosity: 2.204 ± 0.063 mPa·s
  mass density: 852.93 ± 2 kg/m3
303.15 K, x2 = 0.3458
  viscosity: 2.334 ± 0.063 mPa·s
  mass density: 848.23 ± 2 kg/m3
303.15 K, x2 = 0.4513
  viscosity: 2.454 ± 0.064 mPa·s
  mass density: 842.2 ± 2 kg/m3
303.15 K, x2 = 0.5523
  viscosity: 2.558 ± 0.064 mPa·s
  mass density: 838.46 ± 2 kg/m3
303.15 K, x2 = 0.6492
  viscosity: 2.626 ± 0.064 mPa·s
  mass density: 830.89 ± 2 kg/m3
303.15 K, x2 = 0.7421
  viscosity: 2.629 ± 0.064 mPa·s
  mass density: 822.55 ± 2 kg/m3
303.15 K, x2 = 0.8315
  viscosity: 2.646 ± 0.064 mPa·s
  mass density: 812.73 ± 2 kg/m3
303.15 K, x2 = 0.9174
  viscosity: 2.676 ± 0.064 mPa·s
  mass density: 806.19 ± 2 kg/m3
308.15 K, x2 = 0
  viscosity: 1.572 ± 0.062 mPa·s
  mass density: 853.24 ± 2 kg/m3
308.15 K, x2 = 0.06096
  viscosity: 1.697 ± 0.062 mPa·s
  mass density: 852.18 ± 2 kg/m3
308.15 K, x2 = 0.1205
  viscosity: 1.791 ± 0.062 mPa·s
  mass density: 851.64 ± 2 kg/m3
308.15 K, x2 = 0.2357
  viscosity: 1.917 ± 0.062 mPa·s
  mass density: 848.49 ± 2 kg/m3
308.15 K, x2 = 0.3458
  viscosity: 2.022 ± 0.062 mPa·s
  mass density: 843.79 ± 2 kg/m3
308.15 K, x2 = 0.4513
  viscosity: 2.123 ± 0.063 mPa·s
  mass density: 837.83 ± 2 kg/m3
308.15 K, x2 = 0.5523
  viscosity: 2.212 ± 0.063 mPa·s
  mass density: 834.13 ± 2 kg/m3
308.15 K, x2 = 0.6492
  viscosity: 2.275 ± 0.063 mPa·s
  mass density: 826.62 ± 2 kg/m3
308.15 K, x2 = 0.7421
  viscosity: 2.303 ± 0.063 mPa·s
  mass density: 818.36 ± 2 kg/m3
308.15 K, x2 = 0.8315
  viscosity: 2.309 ± 0.063 mPa·s
  mass density: 808.63 ± 2 kg/m3
308.15 K, x2 = 0.9174
  viscosity: 2.345 ± 0.063 mPa·s
  mass density: 802.09 ± 2 kg/m3
313.15 K, x2 = 0
  viscosity: 1.417 ± 0.061 mPa·s
  mass density: 848.71 ± 2 kg/m3
313.15 K, x2 = 0.06096
  viscosity: 1.515 ± 0.061 mPa·s
  mass density: 847.71 ± 2 kg/m3
313.15 K, x2 = 0.1205
  viscosity: 1.578 ± 0.062 mPa·s
  mass density: 847.15 ± 2 kg/m3
313.15 K, x2 = 0.2357
  viscosity: 1.678 ± 0.062 mPa·s
  mass density: 844.09 ± 2 kg/m3
313.15 K, x2 = 0.3458
  viscosity: 1.761 ± 0.062 mPa·s
  mass density: 839.39 ± 2 kg/m3
313.15 K, x2 = 0.4513
  viscosity: 1.839 ± 0.062 mPa·s
  mass density: 833.46 ± 2 kg/m3
313.15 K, x2 = 0.5523
  viscosity: 1.902 ± 0.062 mPa·s
  mass density: 829.78 ± 2 kg/m3
313.15 K, x2 = 0.6492
  viscosity: 1.96 ± 0.062 mPa·s
  mass density: 822.37 ± 2 kg/m3
313.15 K, x2 = 0.7421
  viscosity: 1.998 ± 0.062 mPa·s
  mass density: 814.15 ± 2 kg/m3
313.15 K, x2 = 0.8315
  viscosity: 1.998 ± 0.062 mPa·s
  mass density: 804.54 ± 2 kg/m3
313.15 K, x2 = 0.9174
  viscosity: 2.015 ± 0.062 mPa·s
  mass density: 798 ± 2 kg/m3
